How the values were obtained:
[1] = biological target: T1, GRK2 (Homo sapiens, UniProt P25098); test: Lance Kinase Activity Assay, GRK2; details: biochemical Lance kinase activity assay; class symbols A-F; read-out: GRK2 LANCE Assay (IC-50)
T1 construct: purchased Thermo Scientific
T1 sequence (P25098 1-689): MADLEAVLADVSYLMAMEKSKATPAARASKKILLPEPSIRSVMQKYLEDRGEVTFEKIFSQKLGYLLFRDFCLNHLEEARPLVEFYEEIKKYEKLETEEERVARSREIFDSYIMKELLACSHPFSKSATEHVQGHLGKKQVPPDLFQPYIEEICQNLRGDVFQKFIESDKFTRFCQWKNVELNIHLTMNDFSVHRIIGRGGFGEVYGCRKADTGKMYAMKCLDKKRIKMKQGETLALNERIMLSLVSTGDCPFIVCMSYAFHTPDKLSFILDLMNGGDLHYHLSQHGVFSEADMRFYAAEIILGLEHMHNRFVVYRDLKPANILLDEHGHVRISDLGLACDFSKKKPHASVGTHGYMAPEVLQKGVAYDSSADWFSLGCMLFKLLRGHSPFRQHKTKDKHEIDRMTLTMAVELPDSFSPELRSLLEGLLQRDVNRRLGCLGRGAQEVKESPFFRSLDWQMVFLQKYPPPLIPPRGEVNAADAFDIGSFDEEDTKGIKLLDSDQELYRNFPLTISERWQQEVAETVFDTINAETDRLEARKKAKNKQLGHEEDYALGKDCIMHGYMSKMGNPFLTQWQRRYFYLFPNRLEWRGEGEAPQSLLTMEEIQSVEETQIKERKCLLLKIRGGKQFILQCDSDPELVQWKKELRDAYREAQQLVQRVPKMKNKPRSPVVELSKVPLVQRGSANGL
Summary of the method: (§1)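 IC50s from sigmoidal dose-response over 0.0025-10 μM compound, with phosphorylated ULight substrate detected by Eu anti-phospho antibody FRET after EDTA quench.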

[2] = biological target: T2, GRK5 (Homo sapiens, UniProt P34947); test: Lance Kinase Activity Assay, GRK5; details: biochemical Lance kinase activity assay; class symbols A-F; read-out: GRK5 LANCE Assay (IC-50)
T2 construct: purchased Thermo Scientific
Summary of the method: as §1

T2 sequence (P34947 whole entry): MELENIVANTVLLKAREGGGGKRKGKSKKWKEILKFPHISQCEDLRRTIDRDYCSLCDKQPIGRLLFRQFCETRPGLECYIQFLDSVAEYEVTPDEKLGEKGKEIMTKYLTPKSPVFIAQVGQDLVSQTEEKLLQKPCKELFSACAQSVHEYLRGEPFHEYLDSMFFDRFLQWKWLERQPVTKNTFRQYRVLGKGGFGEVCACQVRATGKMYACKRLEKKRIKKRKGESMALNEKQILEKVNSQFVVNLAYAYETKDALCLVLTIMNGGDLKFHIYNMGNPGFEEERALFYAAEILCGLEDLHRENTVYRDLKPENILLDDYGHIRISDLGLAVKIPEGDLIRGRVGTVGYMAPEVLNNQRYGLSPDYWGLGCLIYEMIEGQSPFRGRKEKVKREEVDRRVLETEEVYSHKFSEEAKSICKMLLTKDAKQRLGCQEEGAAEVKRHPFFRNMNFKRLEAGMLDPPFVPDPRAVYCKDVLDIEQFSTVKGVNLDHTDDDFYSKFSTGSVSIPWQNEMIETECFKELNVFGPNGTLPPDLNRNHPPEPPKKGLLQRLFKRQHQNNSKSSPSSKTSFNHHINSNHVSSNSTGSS

Structure (SMILES) | IC50 [1] | IC50 [2]
COc1ccc([C@@H](C)NC(=O)/C(C#N)=C/c2c[nH]c3ncc(-c4cccc(OCCN(C)C)c4)cc23)cc1OC [Example 152] | 1000 to 10000 nM | ≤ 50 nM
COc1ccc([C@@H](C)NC(=O)/C(C#N)=C/c2c[nH]c3ncc(-c4ccc(N5CCN(C)CC5)cc4OC)cc23)cc1OC [Example 153] | 500 to 1000 nM | ≤ 50 nM
COc1ccc([C@@H](C)NC(=O)/C(C#N)=C/c2c[nH]c3ncc(-c4ccc(OCCN(C)C)cc4)cc23)cc1OC [Example 154] | 500 to 1000 nM | ≤ 50 nM
COc1ccc([C@@H](C)NC(=O)/C(C#N)=C/c2c[nH]c3ncc(-c4cnn(C5COC5)c4)cc23)cc1OC [Example 155] | 1000 to 10000 nM | ≤ 50 nM
COc1ccc([C@@H](C)NC(=O)/C(C#N)=C/c2c[nH]c3ncc(C4=CCCC4)cc23)cc1OC [Example 158, (R,E)-2-cyano-3-(5-(cyclopent-1-en-1-yl)-1H-pyrrolo[2,3-b]pyridin-3-yl)-N-(1-(3,4-dimethoxyphenyl)ethyl)acrylamide] | > 10000 nM | ≤ 50 nM
COc1ccc([C@@H](C)NC(=O)/C(C#N)=C/c2c[nH]c3ncc(-c4cnn(CC(C)C)c4)cc23)cc1OC [Example 161, (R,E)-2-cyano-N-(1-(3,4-dimethoxyphenyl)ethyl)-3-(5-(1-isobutyl-1H-pyrazol-4-yl)-1H-pyrrolo[2,3-b]pyridin-3-yl)acrylamide] | > 10000 nM | ≤ 50 nM
COc1ccc([C@@H](C)NC(=O)/C(C#N)=C/c2c[nH]c3ncc(-c4cnn(C)c4)cc23)cc1OC [Example 164] | 1000 to 10000 nM | ≤ 50 nM
COc1ccc([C@@H](C)NC(=O)/C(C#N)=C/c2c[nH]c3ncc(-c4cnn5ccccc45)cc23)cc1OC [Example 167] | 1000 to 10000 nM | ≤ 50 nM
COc1ccc([C@@H](C)NC(=O)/C(C#N)=C/c2c[nH]c3nccc(-c4ccc(N5CCN(C)CC5)cc4)c23)cc1OC [Example 171, (R,E)-2-cyano-N-(1-(3,4-dimethoxyphenyl)ethyl)-3-(4-(4-(4-methylpiperazin-1-yl)phenyl)-1H-pyrrolo[2,3-b]pyridin-3-yl)acrylamide] | 1000 to 10000 nM | ≤ 50 nM
COc1ccc([C@@H](C)NC(=O)/C(C#N)=C/c2c[nH]c3nccc(-c4ccccc4)c23)cc1OC [Example 175] | 1000 to 10000 nM | ≤ 50 nM
C[C@@H](NC(=O)/C(C#N)=C/c1c[nH]c2ncc(-c3ccccc3)cc12)c1ccc(F)cc1 [Example 179] | 1000 to 10000 nM | 100 to 500 nM
COc1ccc([C@@H](C)NC(=O)/C=C/c2c[nH]c3ncc(-c4ccc(N5CCN(C(C)=O)CC5)cc4)cc23)cc1OC [Example 182] | 100 to 500 nM | ≤ 50 nM
COc1ccc([C@@H](C)NC(=O)/C=C/c2c[nH]c3ncc(-c4ccc(NS(C)(=O)=O)cc4)cc23)cc1OC [Example 187] | 1000 to 10000 nM | ≤ 50 nM
COc1ccc([C@@H](C)NC(=O)/C=C/c2c[nH]c3ncc(-c4cccc(OCCCN(C)C)c4)cc23)cc1OC [Example 188] | 500 to 1000 nM | ≤ 50 nM
COc1ccc([C@@H](C)NC(=O)/C=C/c2c[nH]c3ncc(-c4cccc(CN(C)C)c4)cc23)cc1OC [Example 190] | 1000 to 10000 nM | ≤ 50 nM
CC[S+]([O-])c1cccc(-c2cnc3[nH]cc(/C=C/C(=O)N[C@H](C)c4ccc(OC)c(OC)c4)c3c2)c1 (stereo partly drawn) [Example 191, (E)-N-((R)-1-(3,4-dimethoxyphenyl)ethyl)-3-(5-(3-(ethylsulfinyl)phenyl)-1H-pyrrolo[2,3-b]pyridin-3-yl)acrylamide] | 1000 to 10000 nM | ≤ 50 nM

Results, then the compound that gave them:

IC50 [1] | IC50 [2] | Structure (SMILES)
> 10000 nM | 100 to 500 nM | COc1ccc([C@@H](C)NC(=O)/C(C#N)=C/c2c[nH]c3ncc(C4=CCCCC4)cc23)cc1OC [Example 156, (R,E)-2-cyano-3-(5-(cyclohex-1-en-1-yl)-1H-pyrrolo[2,3-b]pyridin-3-yl)-N-(1-(3,4-dimethoxyphenyl)ethyl)acrylamide]
1000 to 10000 nM | ≤ 50 nM | COc1ccc([C@@H](C)NC(=O)/C(C#N)=C/c2c[nH]c3ncc(-c4cnn(CC(C)O)c4)cc23)cc1OC (some centres unmarked) [Example 157]
> 10000 nM | 100 to 500 nM | COc1ccc([C@@H](C)NC(=O)/C(C#N)=C/c2c[nH]c3ncc(-c4cnn(Cc5ccccc5)c4)cc23)cc1OC [Example 159]
1000 to 10000 nM | ≤ 50 nM | COc1ccc([C@@H](C)NC(=O)/C(C#N)=C/c2c[nH]c3ncc(-c4cnn(CCN5CCOCC5)c4)cc23)cc1OC [Example 160]
1000 to 10000 nM | ≤ 50 nM | COc1ccc([C@@H](C)NC(=O)/C(C#N)=C/c2c[nH]c3ncc(-c4ccc5nc(C)cn5c4)cc23)cc1OC [Example 162]
1000 to 10000 nM | ≤ 50 nM | COc1ccc([C@@H](C)NC(=O)/C(C#N)=C/c2c[nH]c3ncc(-c4cn[nH]c4)cc23)cc1OC [Example 163]
1000 to 10000 nM | 50 to 100 nM | COc1ccc([C@@H](C)NC(=O)/C(C#N)=C/c2c[nH]c3ncc(-c4cnn(C5CCN(C(=O)OC(C)(C)C)CC5)c4)cc23)cc1OC [Example 165]
1000 to 10000 nM | ≤ 50 nM | COc1ccc([C@@H](C)NC(=O)/C(C#N)=C/c2c[nH]c3ncc(-c4cn(C)cn4)cc23)cc1OC [Example 166, (R,E)-2-cyano-N-(1-(3,4-dimethoxyphenyl)ethyl)-3-(5-(1-methyl-1H-imidazol-4-yl)-1H-pyrrolo[2,3-b]pyridin-3-yl)acrylamide]
1000 to 10000 nM | ≤ 50 nM | COc1ccc([C@@H](C)NC(=O)/C(C#N)=C/c2c[nH]c3ncc(-c4cn(C)nc4C)cc23)cc1OC [Example 168, (R,E)-2-cyano-N-(1-(3,4-dimethoxyphenyl)ethyl)-3-(5-(1,3-dimethyl-1H-pyrazol-4-yl)-1H-pyrrolo[2,3-b]pyridin-3-yl)acrylamide]
1000 to 10000 nM | ≤ 50 nM | COc1ccc([C@@H](C)NC(=O)/C(C#N)=C/c2c[nH]c3nccc(-c4ccc(C5CCN(C)CC5)cc4)c23)cc1OC [Example 170]
1000 to 10000 nM | ≤ 50 nM | COc1ccc([C@@H](C)NC(=O)/C(C#N)=C/c2c[nH]c3nccc(-c4cccc(N5CCN(C)CC5)c4)c23)cc1OC [Example 172, (R,E)-2-cyano-N-(1-(3,4-dimethoxyphenyl)ethyl)-3-(4-(3-(4-methylpiperazin-1-yl)phenyl)-1H-pyrrolo[2,3-b]pyridin-3-yl)acrylamide]
1000 to 10000 nM | ≤ 50 nM | COc1ccc([C@@H](C)NC(=O)/C(C#N)=C/c2c[nH]c3nccc(-c4ccc(CN5CCN(C)CC5)cc4)c23)cc1OC [Example 173, (R,E)-2-cyano-N-(1-(3,4-dimethoxyphenyl)ethyl)-3-(4-(4-((4-methylpiperazin-1-yl)methyl)phenyl)-1H-pyrrolo[2,3-b]pyridin-3-yl)acrylamide]
1000 to 10000 nM | ≤ 50 nM | COc1ccc([C@@H](C)NC(=O)/C(C#N)=C/c2c[nH]c3nccc(-c4cccc(CN(C)C)c4)c23)cc1OC [Example 176, (R,E)-2-cyano-N-(1-(3,4-dimethoxyphenyl)ethyl)-3-(4-(3-((dimethylamino)methyl)phenyl)-1H-pyrrolo[2,3-b]pyridin-3-yl)acrylamide]
> 10000 nM | 100 to 500 nM | COc1ccc([C@@H](C)NC(=O)/C(C#N)=C/c2c[nH]c3nccc(-c4cc(F)cc(F)c4)c23)cc1OC [Example 178]
100 to 500 nM | 50 to 100 nM | C[C@@H](NC(=O)/C(C#N)=C/c1c[nH]c2ncc(-c3ccc(N4CCN(C)CC4)cc3)cc12)c1ccc(F)cc1 [Example 180]
100 to 500 nM | ≤ 50 nM | C[C@@H](NC(=O)/C(C#N)=C/c1c[nH]c2ncc(-c3cccc(N4CCN(C)CC4)c3)cc12)c1ccc(F)cc1 [Example 181, (R,E)-2-cyano-N-(1-(4-fluorophenyl)ethyl)-3-(5-(3-(4-methylpiperazin-1-yl)phenyl)-1H-pyrrolo[2,3-b]pyridin-3-yl)acrylamide]
> 10000 nM | ≤ 50 nM | COc1ccc([C@@H](C)NC(=O)/C=C/c2c[nH]c3ncc(-c4cccc(CN5CCN(C)CC5)c4)cc23)cc1OC [Example 183]
> 10000 nM | 50 to 100 nM | COc1ccc([C@@H](C)NC(=O)/C=C/c2c[nH]c3ncc(-c4ccc(CN(C)C)cc4)cc23)cc1OC [Example 184]
1000 to 10000 nM | ≤ 50 nM | COc1ccc([C@@H](C)NC(=O)/C=C/c2c[nH]c3ncc(-c4cccc(N5CCN(C)CC5)c4)cc23)cc1OC [Example 185]
1000 to 10000 nM | ≤ 50 nM | COc1ccc([C@@H](C)NC(=O)/C=C/c2c[nH]c3ncc(-c4cccnc4)cc23)cc1OC [Example 186, (R,E)-N-(1-(3,4-dimethoxyphenyl)ethyl)-3-(5-(pyridin-3-yl)-1H-pyrrolo[2,3-b]pyridin-3-yl)acrylamide]
1000 to 10000 nM | ≤ 50 nM | COc1ccc([C@@H](C)NC(=O)/C=C/c2c[nH]c3ncc(-c4cccc(C(N)=O)c4)cc23)cc1OC [Example 189]

— patent publication US20240294522A1 (Lead Discovery Center GmbH, priority 2021, published 2024)
